# Measured values taken from PubChem BioAssay AID2060627 (Molecular Pharmacology Branch, DTP, NCI, 2025).
# Test system: 156681-154-R-J1-PDC complex spheroid viability
# Assay: Anticancer human tumor 156681-154-R-J1-PDC patient-derived melanoma cell line growth inhibition [CLK]
# Conditions: for IC50: curve of first compound; for viability, T/C: stronger effect = lower value
# In short: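 Patient-derived tumor cells grown as complex spheroids with HUVEC endothelial cells and mesenchymal stem cells, treated with drug combinations. Concentrations descend in half-log steps from near clinical Cmax, or from 10 microM if Cmax unknown.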
# [1] = second compound 0.0316 µM, first compound 0.00949 µM
# [2] = second compound 0.0316 µM, first compound 0.03 µM
# [3] = second compound 0.0316 µM, first compound 0.0949 µM
# [4] = second compound 0.0316 µM, first compound 0.3 µM
# [5] = second compound 0.1 µM, first compound 0.00949 µM
# [6] = second compound 0.1 µM, first compound 0.03 µM
# [7] = second compound 0.1 µM, first compound 0.0949 µM
# [8] = second compound 0.1 µM, first compound 0.3 µM
# [9] = second compound 0.316 µM, first compound 0.00949 µM
# [10] = second compound 0.316 µM, first compound 0.03 µM
# [11] = second compound 0.316 µM, first compound 0.0949 µM
# [12] = second compound 0.316 µM, first compound 0.3 µM
# [13] = second compound 1 µM, first compound 0.00949 µM
# [14] = second compound 1 µM, first compound 0.03 µM
# [15] = second compound 1 µM, first compound 0.0949 µM
# [16] = second compound 1 µM, first compound 0.3 µM
# [17] = second compound 3.16 µM, first compound 0.00949 µM
# [18] = second compound 3.16 µM, first compound 0.03 µM
# [19] = second compound 3.16 µM, first compound 0.0949 µM
# [20] = second compound 3.16 µM, first compound 0.3 µM
# [21] = second compound 10 µM, first compound 0.00949 µM
# [22] = second compound 10 µM, first compound 0.03 µM
# [23] = second compound 10 µM, first compound 0.0949 µM
# [24] = second compound 10 µM, first compound 0.3 µM
# [25] = second compound 0.0316 µM, first compound 0.0316 µM
# [26] = second compound 0.0316 µM, first compound 0.1 µM
# [27] = second compound 0.0316 µM, first compound 0.316 µM
# [28] = second compound 0.0316 µM, first compound 1 µM
# [29] = second compound 0.0316 µM, first compound 3.16 µM
# [30] = second compound 0.0316 µM, first compound 10 µM
# [31] = second compound 0.1 µM, first compound 0.0316 µM
# [32] = second compound 0.1 µM, first compound 0.1 µM
# [33] = second compound 0.1 µM, first compound 0.316 µM
# [34] = second compound 0.1 µM, first compound 1 µM
# [35] = second compound 0.1 µM, first compound 3.16 µM
# [36] = second compound 0.1 µM, first compound 10 µM
# [37] = second compound 0.316 µM, first compound 0.0316 µM
# [38] = second compound 0.316 µM, first compound 0.1 µM
# [39] = second compound 0.316 µM, first compound 0.316 µM
# [40] = second compound 0.316 µM, first compound 1 µM
# [41] = second compound 0.316 µM, first compound 3.16 µM
# [42] = second compound 0.316 µM, first compound 10 µM
# [43] = second compound 1 µM, first compound 0.0316 µM
# [44] = second compound 1 µM, first compound 0.1 µM
# [45] = second compound 1 µM, first compound 0.316 µM
# [46] = second compound 1 µM, first compound 1 µM
# [47] = second compound 1 µM, first compound 3.16 µM
# [48] = second compound 1 µM, first compound 10 µM
# [49] = second compound 3.16 µM, first compound 0.0316 µM
# [50] = second compound 3.16 µM, first compound 0.1 µM
# [51] = second compound 3.16 µM, first compound 0.316 µM
# [52] = second compound 3.16 µM, first compound 1 µM
# [53] = second compound 3.16 µM, first compound 3.16 µM
# [54] = second compound 3.16 µM, first compound 10 µM
# [55] = second compound 10 µM, first compound 0.0316 µM
# [56] = second compound 10 µM, first compound 0.1 µM
# [57] = second compound 10 µM, first compound 0.316 µM
# [58] = second compound 10 µM, first compound 1 µM
# [59] = second compound 10 µM, first compound 3.16 µM
# [60] = second compound 10 µM, first compound 10 µM
# 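Further: spheroids exposed to the agents for seven days.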
# 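Wherever viability, T/C is given: 100% = DMSO vehicle control viability.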
smiles,measurement,setting,value
C=CC(=O)Nc1cc(Nc2nccc(-c3cn(C)c4ccccc34)n2)c(OC)cc1N(C)CCN(C)C + CN1CCN(c2cc(C(=O)Nc3cc4cc(-c5cnn(C)c5)ccc4cn3)ccn2)CC1,IC50,second compound 0.0316 µM,> 300 nM
same,IC50,second compound 0.1 µM,> 300 nM
same,IC50,second compound 0.316 µM,< 0.949 nM
same,IC50,second compound 1 µM,< 0.949 nM
same,IC50,second compound 3.16 µM,< 0.949 nM
same,IC50,second compound 10 µM,< 0.949 nM
same,"viability, T/C","second compound 0.0316 µM, first compound 0.000949 µM",102%
same,"viability, T/C","second compound 0.0316 µM, first compound 0.003 µM",91.7%
same,"viability, T/C",[1],112%
same,"viability, T/C",[2],89.8%
same,"viability, T/C",[3],94.8%
same,"viability, T/C",[4],90%
same,"viability, T/C","second compound 0.1 µM, first compound 0.000949 µM",99.7%
same,"viability, T/C","second compound 0.1 µM, first compound 0.003 µM",90.2%
same,"viability, T/C",[5],97.7%
same,"viability, T/C",[6],94.7%
same,"viability, T/C",[7],77.6%
same,"viability, T/C",[8],79.9%
same,"viability, T/C","second compound 0.316 µM, first compound 0.000949 µM",19.2%
same,"viability, T/C","second compound 0.316 µM, first compound 0.003 µM",26.4%
same,"viability, T/C",[9],23.4%
same,"viability, T/C",[10],13.1%
same,"viability, T/C",[11],24.2%
same,"viability, T/C",[12],11.1%
same,"viability, T/C","second compound 1 µM, first compound 0.000949 µM",0.2%
same,"viability, T/C","second compound 1 µM, first compound 0.003 µM",0.66%
same,"viability, T/C",[13],0.19%
same,"viability, T/C",[14],0.27%
same,"viability, T/C",[15],0.26%
same,"viability, T/C",[16],1.38%
same,"viability, T/C","second compound 3.16 µM, first compound 0.000949 µM",0.16%
same,"viability, T/C","second compound 3.16 µM, first compound 0.003 µM",1.53%
same,"viability, T/C",[17],0.47%
same,"viability, T/C",[18],0.12%
same,"viability, T/C",[19],1.26%
same,"viability, T/C",[20],0.93%
same,"viability, T/C","second compound 10 µM, first compound 0.000949 µM",1.34%
same,"viability, T/C","second compound 10 µM, first compound 0.003 µM",0.16%
same,"viability, T/C",[21],0.96%
same,"viability, T/C",[22],1.65%
same,"viability, T/C",[23],2.39%
same,"viability, T/C",[24],2.57%
CC1(C)CCC(CN2CCN(c3ccc(C(=O)NS(=O)(=O)c4ccc(NCC5CCOCC5)c([N+](=O)[O-])c4)c(Oc4cnc5[nH]ccc5c4)c3)CC2)=C(c2ccc(Cl)cc2)C1 + CN1CCN(c2cc(C(=O)Nc3cc4cc(-c5cnn(C)c5)ccc4cn3)ccn2)CC1,IC50,second compound 0.0316 µM,4990 nM
same,IC50,second compound 0.1 µM,4370 nM
same,IC50,second compound 0.316 µM,< 31.6 nM
same,IC50,second compound 1 µM,< 31.6 nM
same,IC50,second compound 3.16 µM,< 31.6 nM
same,IC50,second compound 10 µM,< 31.6 nM
same,"viability, T/C",[25],99.7%
same,"viability, T/C",[26],116%
same,"viability, T/C",[27],90.8%
same,"viability, T/C",[28],103%
same,"viability, T/C",[29],81.6%
same,"viability, T/C",[30],1.68%
same,"viability, T/C",[31],97.8%
same,"viability, T/C",[32],83.3%
same,"viability, T/C",[33],86%
same,"viability, T/C",[34],88.8%
same,"viability, T/C",[35],69.2%
same,"viability, T/C",[36],0.79%
same,"viability, T/C",[37],18.2%
same,"viability, T/C",[38],19.7%
same,"viability, T/C",[39],24.4%
same,"viability, T/C",[40],17.9%
same,"viability, T/C",[41],8.72%
same,"viability, T/C",[42],0.28%
same,"viability, T/C",[43],0.22%
same,"viability, T/C",[44],0.91%
same,"viability, T/C",[45],0.19%
same,"viability, T/C",[46],0.18%
same,"viability, T/C",[47],2.05%
same,"viability, T/C",[48],0.07%
same,"viability, T/C",[49],2.04%
same,"viability, T/C",[50],0.47%
same,"viability, T/C",[51],0.27%
same,"viability, T/C",[52],0.09%
same,"viability, T/C",[53],3.38%
same,"viability, T/C",[54],0.4%
same,"viability, T/C",[55],0.1%
same,"viability, T/C",[56],3.06%
same,"viability, T/C",[57],2.9%
same,"viability, T/C",[58],0.17%
same,"viability, T/C",[59],0.91%
same,"viability, T/C",[60],0.56%
NC(=O)C(=Cn1cnc(-c2cc(C(F)(F)F)cc(C(F)(F)F)c2)n1)c1cncnc1 + CN1CCN(c2cc(C(=O)Nc3cc4cc(-c5cnn(C)c5)ccc4cn3)ccn2)CC1,IC50,second compound 0.0316 µM,61 nM
same,IC50,second compound 0.1 µM,31.3 nM
same,IC50,second compound 0.316 µM,< 9.49 nM
same,IC50,second compound 1 µM,< 9.49 nM
same,IC50,second compound 3.16 µM,< 9.49 nM
same,IC50,second compound 10 µM,< 9.49 nM
same,"viability, T/C",[1],93.5%
same,"viability, T/C",[2],63.4%
same,"viability, T/C",[3],45.5%
same,"viability, T/C",[4],13.1%
same,"viability, T/C","second compound 0.0316 µM, first compound 0.949 µM",4.9%
same,"viability, T/C","second compound 0.0316 µM, first compound 3 µM",3.07%
same,"viability, T/C",[5],64.3%
same,"viability, T/C",[6],50.4%
same,"viability, T/C",[7],26.6%
same,"viability, T/C",[8],6.93%
same,"viability, T/C","second compound 0.1 µM, first compound 0.949 µM",2.72%
same,"viability, T/C","second compound 0.1 µM, first compound 3 µM",1.03%
same,"viability, T/C",[9],10.8%
same,"viability, T/C",[10],8.6%
same,"viability, T/C",[11],1.88%
same,"viability, T/C",[12],0.07%
same,"viability, T/C","second compound 0.316 µM, first compound 0.949 µM",1.67%
same,"viability, T/C","second compound 0.316 µM, first compound 3 µM",1.86%
same,"viability, T/C",[13],0.14%
same,"viability, T/C",[14],0.33%
same,"viability, T/C",[15],0.11%
same,"viability, T/C",[16],0.39%
same,"viability, T/C","second compound 1 µM, first compound 0.949 µM",2.63%
same,"viability, T/C","second compound 1 µM, first compound 3 µM",0.65%
same,"viability, T/C",[17],0.07%
same,"viability, T/C",[18],2.18%
same,"viability, T/C",[19],2.61%
same,"viability, T/C",[20],1.32%
same,"viability, T/C","second compound 3.16 µM, first compound 0.949 µM",1.52%
same,"viability, T/C","second compound 3.16 µM, first compound 3 µM",0.84%
same,"viability, T/C",[21],0.07%
same,"viability, T/C",[22],1.56%
same,"viability, T/C",[23],1.25%
same,"viability, T/C",[24],2.65%
same,"viability, T/C","second compound 10 µM, first compound 0.949 µM",2.11%
same,"viability, T/C","second compound 10 µM, first compound 3 µM",0.95%
Nc1ccccc1NC(=O)c1ccc(CNC(=O)OCc2cccnc2)cc1 + CN1CCN(c2cc(C(=O)Nc3cc4cc(-c5cnn(C)c5)ccc4cn3)ccn2)CC1,IC50,second compound 0.0316 µM,563 nM
same,IC50,second compound 0.1 µM,505 nM
same,IC50,second compound 0.316 µM,< 31.6 nM
same,IC50,second compound 1 µM,< 31.6 nM
same,IC50,second compound 3.16 µM,< 31.6 nM
same,IC50,second compound 10 µM,< 31.6 nM
same,"viability, T/C",[25],104%
same,"viability, T/C",[26],86.9%
same,"viability, T/C",[27],69.7%
same,"viability, T/C",[28],33.3%
same,"viability, T/C",[29],5.05%
same,"viability, T/C",[30],0.29%
same,"viability, T/C",[31],95.2%
same,"viability, T/C",[32],89.5%
same,"viability, T/C",[33],65.2%
same,"viability, T/C",[34],27.4%
same,"viability, T/C",[35],7.52%
same,"viability, T/C",[36],1.57%
same,"viability, T/C",[37],23.7%
same,"viability, T/C",[38],20.4%
same,"viability, T/C",[39],19.8%
same,"viability, T/C",[40],14.6%
same,"viability, T/C",[41],1.03%
same,"viability, T/C",[42],0.71%
same,"viability, T/C",[43],0.22%
same,"viability, T/C",[44],1.38%
same,"viability, T/C",[45],0.48%
same,"viability, T/C",[46],0.97%
same,"viability, T/C",[47],2.99%
same,"viability, T/C",[48],1.95%
same,"viability, T/C",[49],0.06%
same,"viability, T/C",[50],0.81%
same,"viability, T/C",[51],0.11%
same,"viability, T/C",[52],0.92%
same,"viability, T/C",[53],1.15%
same,"viability, T/C",[54],1.84%
same,"viability, T/C",[55],0.03%
same,"viability, T/C",[56],0.96%
same,"viability, T/C",[57],0.58%
same,"viability, T/C",[58],0.15%
same,"viability, T/C",[59],3.86%
same,"viability, T/C",[60],2.47%
